Reference: patent US10287265B2, “Enantiomers of 8-hydroxyquinoline derivatives and the synthesis thereof” (AVIDIN Co. Ltd., priority 2015, dated 2019)
“Also recorded” adds a separate entry of the source.

Experiments:
EPO gene = assay: Gene expression in primary astrocytes by qRT-PCR; assay type: cell-based, rat; conditions: 3 h, Example 2 at 330 nM and 1000 nM, PBT2 at 1000 nM
Method: (§1) Pure astrocyte culture was obtained from neonatal rats according to the protocol found in literature (Protocols for Neural Cell Culture 2001, pp 117-127. ch 9. Ruth Cole, Jean de Vellis. Preparation of Astrocyte, Oligodendrocyte, and Microglia Cultures from Primary Rat Cerebral Cultures). Astrocytes (1 million) were cultured in 100 mm TC-treated culture dishes (Orange Scientific, Belgium) in an incubator set at 37° C. and 5% CO2 with humid air. The R-enantiomeric derivative according to Example 2 was added to cells in two final concentrations: 330 nM and 1000 nM. Cells were also treated with 1000 nM PBT2 which bears the basic structure of the R-enantiomer according to Example 2 (8-hydroxy-quinoline ring) but contains conformational differences and was developed for the treatment of neurodegenerative disorders (Pub. No.: WO/2004/007461). Treatments were carried out with a 100 μM DMSO-based stock solution. Control cells were treated with the same amount of DMSO without the agent. Each treatment was conducted in three separate culture dishes. After treatment, cells were incubated at 37° C. for 3 h, then the medium was removed, cells were washed with PBS and total RNA was extracted from cells with the Accuzol™ Total RNA Extraction Solution (Bioneer, Daejeon, South Korea), according to the manufacturer's protocol. cDNA transcription was carried out with the High Capacity cDNA Reverse Transcription Kit (Life Technologies, Foster City, Calif., USA). During the test, the expression of four genes (PGK1, EPO, HMOX-1, VEGF) controlled by HIF1a was determined by qRT-PCR, with HPRT gene serving as a control. Relative expression of genes in treated samples was compared to untreated controls. The PCR was conducted with a LightCycler® Nano Instrument (Roche, Budapest, Hungary) in the presence of UPL (Universal Probe Library) probes (HPRT: 95, HMOX1: 4, EPO: 16, VEGF: 1, PGK1: 66), specific primers (HPRT1: 5′-gaccggttctgtcatgtcg-3′, HPRT2: 5′-[…]-3′; HMOX1-1: 5′-[…]-3′, HMOX1-2: 5′-ctgcagctcctcaaacagc-3′; EPO1: 5′-[…]-3′, EPO2: 5′-ccttctgcacagcccatt-3′; VEGF1: 5′-[…]-3′, VEGF2: 5′-[…]-3′; PGK1-1: 5′-[…]-3′, PGK1-2: 5′-gacttggctccattgtcca-3′) in 20 μl PCR reaction volume with 20 ng cDNA template and 10 μl Lightcycler DNA Probes Master (5×) Reagent Kit (Roche) according to the following protocol: activation of enzyme at 95° C. for 10 min, 50 cycles: denaturation at 95° C. for 15 sec, hybridization and polymerization, then detection at 60° C. for 30 sec.

HMOX-1 gene = assay: Gene expression in primary astrocytes by qRT-PCR; assay type: cell-based, rat; conditions: 3 h, Example 2 at 330 nM and 1000 nM, PBT2 at 1000 nM
Method: as §1

C57BL6/J mice [1] = assay: Scopolamine-induced short-term memory impairment, Y maze test; assay type: in vivo, mouse; conditions: per os gavage; scopolamine 0.6 mg/kg i.p. 30 min prior to Y maze test
Method: (§2) In vivo experiments were carried out according to the National Institute of Health guidelines for the care and use of laboratory animals, approved by the French Ministry for Research and Technology. In the course of experiments, animals were housed at a standard temperature (22±1° C.) and in a light-controlled environment (lights on from 7 a.m. to 8 p.m.) with ad libitum access to food and water. Male C57BL/6 mice (C57BL/6J Rj, ref. SC-CJ-12w-M, Janvier, France) were housed 5 animals per cage. From one week before the start of the experiment until the end of the experiment, mice were housed individually. Animals were monitored twice-a-day by laboratory personnel (8 a.m. and 4 p.m.). In this project, young (14 weeks old) as well as aged (15-16 months old) mice were used. Experiments were carried out using 12 mice per experimental group.
Investigation of short-term working memory—Y maze test Y maze tests were carried out as previously described. Prior to testing, mice were brought to the experimental room for at least 30 min to acclimatize to experimental room conditions. […] Each arm entry was recorded with those entries being counted where the mouse completely placed its hind paws in the chosen arm. […] Results were calculated as the percentage of the ratio of actual detected alternations to possible alternations (defined as the number of total arm entries minus 2). […]

C57BL6/J mice [2] = assay: Short-term memory impairment caused by amyloid peptide aggregates (icv Aβ oligomers), Y maze test; assay type: in vivo, mouse; conditions: 4 mg/kg body weight per os once daily for four days; Y maze at day 4 post Aβ
Method: as §2
Investigation of short-term working memory—Y maze test Y maze tests were carried out as previously described. Prior to testing, mice were brought to the experimental room for at least 30 min to acclimatize to experimental room conditions. The Y maze is made of opaque Plexiglas and each arm is 40 cm long, 16 cm high, 9 cm wide and positioned at equal angles. The apparatus was placed in the test room in such a way that it was brightened homogeneously with 12-15 lux in the arms as well as in the central zone. One mouse at a time was placed at the end of one arm and was allowed to move in the maze freely during a 5 min examination. Each arm entry was recorded with those entries being counted where the mouse completely placed its hind paws in the chosen arm. […] Results were calculated as the percentage of the ratio of actual detected alternations to possible alternations (defined as the number of total arm entries minus 2).
For the examination of memory impairment caused by Aβ oligomers, a mouse model developed and validated by SynAging was used. […] At day 4 post Aβ treatment, short-term memory was assessed with the Y maze test. […]
At day 4 post Aβ treatment, short-term memory was assessed with the Y maze test.

PGK1 gene = assay: Gene expression in primary astrocytes by qRT-PCR; assay type: cell-based, rat; conditions: in the cells
Method: as §1

VEGF gene = assay: Gene expression in primary astrocytes by qRT-PCR; assay type: cell-based, rat; conditions: in the cells
Method: as §1

[3] = system: BALB/c ear skin graft on C57BL/6 recipient mice; assay: Mouse skin transplantation, graft rejection scoring; assay type: in vivo; conditions: 5 mg/kg once every day from transplantation; Example 2 orally, tacrolimus intraperitoneal; scoring at day 9 and day 10
Method: Mouse skin transplantation is a standard method to assay host T cell responses to MHC-disparate donor antigens, which protocol was followed in the present example (Garrod and Cahalan; 2008). Briefly, WT C57BL/6 recipient mice (8-12 weeks old) and WT BALB/c donor mice (8-12 weeks old) were anesthetized with a combination of 10 mg/kg Xylazine and 100 mg/kg Ketamine administered by i.p. injection and 0.05 mg/kg Buprenorphine was administered by subcutaneous injection for analgesia. Ear skin (1.0 cm2) from the WT BALB/c donor mouse was grafted onto the flank of the WT C57BL/6 recipient. The implanted skin (graft) was covered with a sterile bandage, which was removed on day 7 post-transplant.
Recipients received either no treatment (controls), or treated with compound according to Example 2 orally at 5 mg/kg dose, once every day until the end of the experiment from the day of transplantation. […]
Different scores were used to define the quality of the grafts: intact grafts (Score 0), early stages of rejection (Score 1-4, corresponding to first clear signals of graft rejection: 1; >25% rejection rate: 2; >50% rejection rate: 3; >75% rejection rate: 4) up to complete graft rejection (Score 5). […] Average scores with SEM were calculated for each group.

Structure (SMILES)	activation of EPO gene expression (EPO gene)	activation of HMOX-1 gene expression (HMOX-1 gene)	inhibition of scopolamine-induced short-term memory impairment (C57BL6/J mice [1])	inhibition of short-term memory impairment caused by fibrillar aggregates of amyloid peptides (C57BL6/J mice [2])	increase of PGK-1 gene activity (PGK1 gene)	increase of VEGF gene activity (VEGF gene)	skin graft rejection score (0-5) [3]
CN(C)Cc1ccc2c(Cl)cc(Cl)c(O)c2n1 [PBT2, reference compound]	did not induced differences in gene activity	did not induced differences in gene activity	–	–	–	–	–
Cc1ccnc(N[C@@H](c2ccc(C(F)(F)F)cc2)c2ccc3cccnc3c2O)n1 [Example 3, 7-[(S)-[(4-Methylpyrimidin-2-yl)amino][4-(trifluoromethyl)phenyl]methyl]quinolin-8-ol]	capable to increase the gene activity; also recorded: highest inductive effect	capable to increase the gene activity; also recorded: caused the induction of HMOX-1 in astrocytes	did not inhibit	did not inhibit	capable to increase the gene activity	capable to increase the gene activity	–
C=CC[C@@H]1/C=C(\C)C[C@H](C)C[C@H](OC)[C@H]2O[C@@](O)(C(=O)C(=O)N3CCCC[C@H]3C(=O)O[C@H](/C(C)=C/[C@@H]3CC[C@@H](O)[C@H](OC)C3)[C@H](C)[C@@H](O)CC1=O)[C@H](C)C[C@@H]2OC [tacrolimus, reference compound]	–	–	–	–	–	–	smaller score values both on day 9 and on day 10
